Where two headings read alike, the source gives them in different places.
How the values were obtained:
Format in all cases: cell-based
Kyn levels in HeLa cells = assay: Manual Kyn assay in HeLa cells (p-DMAB detection); conditions: IFN-γ, L-Trp, compounds 48 h, p-DMAB, mean n=3 ±SD, read-out: Kyn Assay IC50
Protocol: Mammalian cell lines were maintained at 37°C and 5% CO2 in a humidified atmosphere and sub-cultivated twice a week. All cell lines were tested regularly for mycoplasma contamination and were always free of mycoplasma. BxPC-3 cells (DSMZ#760) were grown in RPMI-1640 medium supplemented with 10% FBS, 2 mM L-glutamine, 1 mM sodium pyruvate, 4.5 g/L glucose, 10 mM HEPES and 1.5 g/L NaHCO3. HeLa cells (DSMZ#57) were cultivated in DMEM supplemented with 10% FBS, 4.5 g/L glucose, 4 mM L-glutamine 1 mM sodium pyruvate, 1% non-essential amino acids, 3.7 g/L NaHCO3. SKOV-3 cells (ATCC#HTB-77) were maintained in modified McCoy’s 5A medium supplemented with 10% FBS, 1.5 mM L-glutamine and 2.2 g/L NaHCO3. […]
For manual testing, BxPC-3, HeLa or SKOV-3 cells (20,000 cells/well, 5,000 cells/well or 6,250 cells/well, respectively) were seeded in 96-well plates (BxPC-3 and HeLa) or 384-well plates (SKOV-3) in medium without phenol red. After 24 h, the IDO1 pathway was induced by addition of 50 ng/mL (BxPC-3 and HeLa) or 17.6 ng/mL IFN-γ (SKOV-3) and 380 µM (BxPC-3), 164.15 µM (HeLa) or 450 µM L-Trp (SKOV-3) with simultaneous treatment with the compounds at the indicated concentrations followed by incubation for 48 h. For the hemin competition assay, hemin was added together with IFN-γ, L-Trp and the compounds. Subsequently, trichloroacetic acid was added to a final concentration of 7% (v/v), the plates were incubated for 15 min at room […]
temperature and centrifuged for 10 min at 1800 x g. Afterwards, an equal volume of freshly prepared 2% (w/v) p-DMAB in glacial acetic acid (Ehrlich reagent) was added prior to measuring the absorbance at 492 nm and 650 nm on the Spark® Multimode Microplate Reader (Tecan, AT).
To determine the Kyn levels, the absorbance of the Kyn-p-DMAB adduct A492 was subtracted by the background absorbance A650 and normalized to the DMSO control. Data analysis was performed using a non-linear regression curve fit and GraphPad Prism 9.0 (GraphPad Software, Inc, US) to generate dose-response curves and obtain IC50 values. […]
Subsequently, 10 mM ascorbic acid, 10 μM methylene blue, 2 mM L-Trp and 100 μg/mL catalase were added and samples were incubated for 60 min at room temperature or 37°C. […]

[1] = system: Kyn levels in BxPC-3 cells; assay: Automated (high-throughput) Kyn assay in BxPC-3 cells (Kyn sensor); conditions: Homo sapiens, BXPC-3; footnote e: value from automated Kyn Assay
Protocol: Mammalian cell lines were maintained at 37°C and 5% CO2 in a humidified atmosphere and sub-cultivated twice a week. All cell lines were tested regularly for mycoplasma contamination and were always free of mycoplasma. BxPC-3 cells (DSMZ#760) were grown in RPMI-1640 medium supplemented with 10% FBS, 2 mM L-glutamine, 1 mM sodium pyruvate, 4.5 g/L glucose, 10 mM […]
HEPES and 1.5 g/L NaHCO3. […]
High-throughput Kyn assay
Automated screening for modulators of Kyn levels in BxPC-3 cells was performed as published earlier.[2] Briefly, BxPC-3 cells (1,000 cells/well) were seeded in black 1536-well plates prior to incubation for 24 h and subsequent treatment with compounds, 380 µM L-Trp and 50 ng/mL IFN-γ for 48 h. Afterwards, trichloroacetic acid was added to a final concentration of 7% (v/v), the plates were incubated for 10 min at 37°C and centrifuged for 10 min at 1620 x g. Kyn was detected by addition of 17.5 µM Kyn sensor[14] in assay buffer (excitation: 535 nm, emission: […]

[2] = system: L-Trp uptake in BxPC-3 cells; assay: Trp uptake assay in BxPC-3 cells (HPLC-MS/MS); conditions: BxPC-3 starved for L-Trp 72 h, ±IFN-γ; 5 mM L-Leu, 1 mM 1-MT, 5 µM compound
Protocol: GraphPad Prism 9.0 (GraphPad Software, Inc, US) to generate dose-response curves and obtain […]
IDO1 promoter reporter gene assay
HEK293T cells (25,000 cells/well) were reverse-transfected with pXPG-IDO1[16] (4 µg/96-well plate, kindly provided by Gina M. Doody, Leeds, UK) and pRL-TK (300 ng/96-well plate, Promega, US) using Lipofectamine™ 2000 (Invitrogen, USA) pri or to incubation for 24 h. Afterwards, cells were treated with 50 ng/mL IFN-γ and the compounds for 48 h. Luminescence generated by the Fluc reporter and the control reporter Rluc was measured using the Dual-Glo ® Luciferase Assay System (Promega, US) on the Spark® Multimode Microplate Reader (Tecan, AT). To determine the IDO1 promoter activity, Fluc signals were divided by Rluc signals and normalized to the values of the DMSO control. Data analysis was performed using a non-linear regression curve fit and […]
BxPC-3 cells (30,000 cells/well) were seeded in 96-well plates in Trp-free RPMI 1640 medium and incubated for 48 h prior addition of 50 ng/mL IFN-γ. Trp starvation was continued for another 24 h. Afterwards, medium was exchanged for Trp-free medium containing the control inhibitors 5 mM L-Leu (inhibitor of system-L amino acid transporters (LAT)), 1 mM 1-methyl-L-tryptophan (inhibitor of tryptophanyl-tRNA synthetase (TrpRS)) and compounds and cells were incubated for 30 min. Subsequently, 50 µM L-Trp was added and samples were incubated for another 30 min.
The supernatant was transferred to a new plate, trichloroacetic acid was added to a final concentration of 7% (v/v) and plates were incubated for 15 min at room temperature. Samples were centrifuged for 10 min at 1800 x g and L-Trp was quantified by HPLC-MS/MS using the LTQ Velos Pro and Dionex HPLC (Thermo Fisher Scientific, US). Data analysis was performed with Xcalibur™ (Thermo Fisher Scientific, US) and repres ented using GraphPad Prism 9.0 (GraphPad […]
RNA purification and RT-qPCR
HeLa cells (250,000 cells/well) were seeded in 6-well plates and incubated for 24 h prior addition of 50 ng/mL IFN-γ and compounds. […]

Row | Compound | IC50 (Kyn levels in HeLa cells; Homo sapiens, HeLa, 48 h) | other results
1 | CCOC(=O)C1=CC[C@@](C(=O)OC)(c2cc3ccccc3n2C)N(S(=O)(=O)c2ccccc2[N+](=O)[O-])[C@H]1C(=O)OCC [3a^a] | > 10000 nM | 
2 | CCOC(=O)C1=CC[C@H](c2cc3ccccc3n2C)N(S(=O)(=O)c2ccc(C)cc2)[C@@H]1C(=O)OC(C)(C)C [3e^e] |  | IC50 [1]: 260 ± 50 nM
3 | Cn1cc(C[C@H](N)C(=O)O)c2ccccc21 [Compound 1-MT, 1-methyl-L-tryptophan] |  | uptake (import) of L-Trp [2]: inhibit the uptake
4 | CCOC(=O)C1=CC[C@H](c2cc3ccccc3n2C)N(S(=O)(=O)c2ccccc2[N+](=O)[O-])[C@@H]1C(=O)OC(C)(C)C [Compound 3c] |  | IC50 (Kyn levels in HeLa cells; listed as 3c^b): 480 ± 60 nM; IC50 (Kyn levels in HeLa cells): 1040 ± 80 nM
5 | CCOC(=O)C1=CC[C@](C(=O)OC)(c2cc3ccccc3n2C)N(S(C)(=O)=O)[C@@H]1C(=O)OC(C)(C)C [Compound 3f] | 80 ± 10 nM | IC50 (Kyn levels in HeLa cells; listed as 3f^bc): 90 ± 10 nM
6 | CCOC(=O)C1=CC[C@](C(=O)OC)(c2cc3ccccc3n2C)N(S(=O)(=O)c2ccccc2)[C@@H]1C(=O)OC(C)(C)C [Compound 3g] | 80 ± 10 nM | 
7 | CCOC(=O)C1=CC[C@](C(=O)OC)(c2cc3ccccc3n2C)N(S(=O)(=O)c2ccc(Br)cc2)[C@@H]1C(=O)OC(C)(C)C [Compound 3h] | 430 ± 150 nM | 
8 | CCOC(=O)C1=CC[C@](C(=O)OC)(c2cc3ccccc3n2C)N(S(=O)(=O)c2cccc(C(F)(F)F)c2)[C@@H]1C(=O)OC(C)(C)C [Compound 3i] | 1540 ± 410 nM | 
9 | CCOC(=O)[C@@H]1C(C(=O)OC(C)(C)C)=CC[C@](C(=O)OC)(c2cc3ccccc3n2C)N1S(=O)(=O)c1ccc(C)cc1 [Compound 3j] | 760 ± 40 nM | 
10 | CCOC(=O)[C@@H]1C(C(=O)OC(C)(C)C)=CC[C@H](c2cc3ccccc3n2C)N1S(=O)(=O)c1ccc(C)cc1 [Compound 3k] | 1630 ± 160 nM | 
11 | COC(=O)[C@]1(c2cc3ccccc3n2C)CC=C(C(=O)OCc2ccccc2)[C@@H](C(=O)OC(C)(C)C)N1S(=O)(=O)c1ccccc1[N+](=O)[O-] [Compound 3l] |  | IC50 (Kyn levels in HeLa cells; listed as 3l^a): 2880 ± 130 nM; IC50 (Kyn levels in HeLa cells): 1390 ± 90 nM
12 | CCOC(=O)[C@@H]1C(C(=O)OC(C)(C)C)=CC[C@](C(=O)OC)(c2cc3ccccc3n2C)N1S(=O)(=O)c1ccccc1[N+](=O)[O-] [Compound 3m] | 2460 ± 290 nM | 
13 | CCOC(=O)C1=CC[C@](C(=O)OC)(c2cc3ccccc3n2C)N(S(=O)(=O)c2ccccc2[N+](=O)[O-])[C@@H]1C(=O)OCc1ccccc1 [Compound 3n] | 7520 ± 800 nM | 
14 | COC(=O)[C@]1(c2cc3ccccc3n2C)CC=C(C(=O)OC(C)(C)C)[C@@H](C(=O)OC(C)(C)C)N1S(=O)(=O)c1ccccc1[N+](=O)[O-] [Compound 3o] |  | IC50 (Kyn levels in HeLa cells; listed as 3o^a): 820 ± 700 nM; IC50 (Kyn levels in HeLa cells; listed as 3o^b): 160 ± 50 nM; IC50 (Kyn levels in HeLa cells): 650 ± 80 nM
15 | COC(=O)[C@]1(c2cc3ccccc3n2C)CC=C(C(=O)OCc2ccccc2)[C@@H](C(=O)OC(C)(C)C)N1S(=O)(=O)c1ccc(C)cc1 [Compound 3p] | 1650 ± 230 nM | 
16 | CCOC(=O)C1=CC[C@](C(=O)OC)(c2cc3ccccc3n2C)N(S(=O)(=O)c2ccc(F)cc2)[C@@H]1C(=O)OC(C)(C)C [Compound 3q] | 110 ± 20 nM | 
17 | Cn1c([C@H]2CC=C(C(=O)OCc3ccccc3)[C@@H](C(=O)OC(C)(C)C)N2S(=O)(=O)c2ccccc2[N+](=O)[O-])cc2ccccc21 [Compound 3r] | 890 ± 190 nM | 
18 | CC(C)C[C@H](N)C(=O)O [L-Leu, L-leucine] |  | uptake (import) of L-Trp [2]: inhibit the uptake

From article PMC9804781, “Identification of a Novel Pseudo‐Natural Product Type IV IDO1 Inhibitor Chemotype” (Angewandte Chemie (International Ed. in English), 2022)
